Reference: patent US11707445B2, “Composition for blocking angiogenesis” (Indiana University Research and Technology Corporation, priority 2015, dated 2023)

Tests used:
retina [1] = test: In vivo toxicity of intravitreally injected SH-11037 (histology, immunofluorescence); set-up: species or system C57BL/6J mice
Experimental: (§1) All mouse experiments followed the guidelines of the Association for Research in Vision and Ophthalmology Statement for the Use of Animals in Ophthalmic and Visual Research and were approved by the Indiana University School of Medicine Institutional Animal Care and Use Committee. Wild-type female C57BL/6J mice, 6-8 weeks of age, were purchased from the Jackson Laboratory (Bar Harbor, Me.). Intraperitoneal injections of 17.5 mg/kg ketamine hydrochloride and 2.5 mg/kg xylazine mixture were used for anesthesia.
(§2) Injections were given under anesthesia in a 0.5 μL volume using a 33-gauge needle. The needle was kept in place for 1 minute to prevent the reflux of solution when the needle was removed. SH-11037 was dissolved in DMSO then diluted in PBS to a final concentration of 0.5% DMSO. Eyes were numbed with tetracaine solution before the injection, and triple antibiotic ointment was used immediately after the injection to prevent infection. A masked researcher undertook imaging and analysis to avoid bias.
Toxicity of intravitreally injected SH-11037 was initially assessed by histology and immunofluorescence. The presence of acute ocular toxicity was investigated by injecting SH-11037 at different concentrations (0.1, 1, 10, and 100 μM), while long-term effects were tested by injecting 10 μM SH-11037. Mice were sacrificed 3 and 14 days post injections, respectively. Eyes were enucleated and fixed in 4% PFA overnight, and then the eyes were paraffin embedded and sectioned at 5 μm thickness by the Indiana University School of Medicine Histology Core. Mayer's hematoxylin and eosin (H&E) staining was performed, and retinal morphology was quantified by calculating the ratio of A (the distance from the ganglion cell layer to the outer edge of the inner nuclear layer) to B (the distance from the ganglion cell layer to the outer edge of the outer nuclear layer).
For immunofluorescence, sections were deparaffinised with xylenes and ethanol series and boiled in citrate buffer for 5 minutes. […]

[2] = system: retinal neovascularization; settings: in vivo; cited from earlier work
neural retina function = test: Retinal electrophysiology (ERG) after intravitreal injection; format: in vivo, C57BL/6J mice; settings: 14 days after 100 μM SH-11037 injections, relative to control eyes
Experimental: as §1
Injections were given under anesthesia in a 0.5 μL volume using a 33-gauge needle. The needle was kept in place for 1 minute to prevent the reflux of solution when the needle was removed. […]
Electroretinograms (ERG) were obtained from animals 14 days post intravitreal injection of 100 μM SH-11037, 0.2 ng mouse anti-VEGF neutralizing antibody (R&D Systems, Minneapolis, Minn., USA)+0.3 μM SH-11037, or vehicle control and performed as described in Cai et al., EMBO Mol Med, 2012 4(9):980-91. Briefly, scotopic rod recordings were performed on overnight dark-adapted mice, with 10 increasing light intensities of white light and responses were recorded with a visual electrodiagnostic system (UTAS-E 2000; LKC Technologies, Gaithersburg, Md.). […] Ten responses were recorded and averaged at each light intensity. […]

[3] = system: pre-existing retinal vasculature; test: Staining of pre-existing retinal vasculature (isolectin B4 retina flatmounts); format: in vivo, C57BL/6J mice; settings: 14 days after 100 μM intravitreal injection, vs vehicle control
[4] = system: human retinal endothelial cells (HRECs); settings: cited from earlier work
mouse choroidal tissues = test: Choroidal sprouting assay (ex vivo); format: cell-based, C57Bl/6J mice
Experimental: Sprouting of choroidal layers was tested as previously described in Shao et a., PLoS One, 2013 8(7): e69552. Briefly, 6-8 week old C57Bl/6J mice eyes were enucleated immediately after euthanasia. Peripheral parts of the choroid/sclera layer were separated and cut into pieces. Choroid fragments were then placed on growth factor-reduced Matrigel™ (30 μL/well; BD Biosciences, San Jose, Calif.) in 24-well plates. The plates were then incubated at 37° C. for about 10 minutes to allow the Matrigel to solidify. Endothelial Growth Medium (EGM-2) was prepared by mixing the contents of an EGM-2 “Bullet Kit” (Cat no. CC-4176) with Endothelial Basal Medium (EBM) (Lonza, Walkersville, Md.). Penicillin-streptomycin and 2.5 mg/mL Plasmocin were added to the final medium and used for this assay. Medium (500 μL) was added to each well of the plate and incubated at 37° C. with 5% CO2 for 72 hours before any treatments were added. Medium was changed after 48 hours. SH-11037 was synthesized as taught in WO2014/182695 (incorporated by reference to the extent it is consistent herewith) and dissolved in DMSO and then tested at 0.03, 0.3, and 1 μM concentrations for 48 hours. The final concentration of DMSO in each well was 0.2%. Trypan blue 0.4% solution (Fisher Scientific, Pittsburgh, Pa., USA) was used to assess cell viability. Images were taken using an EVOS-fl digital microscope (AMG, Mill Creek, Wash., USA) and data were analyzed as the sprouting distance in four different directions using ImageJ software v. 1.48V.

CNV lesions = test: Laser-induced choroidal neovascularization (L-CNV) model; format: in vivo, C57BL/6J mice; settings: for reduction in CNV lesion volume (Z-stack images of agglutinin-stained choroidal flatmounts): day 14, vs vehicle control; for reduction of CNV lesion volume: day 14, vs control eyes, P<0.01
Experimental: as §1, §2
Laser photocoagulation was performed as described in Sulaiman et al., J Ocul Pharmacol Ther, 2015 and Poor et al., Invest Opthalmol Vis Sci, 2014 55(10): 6525-34. Briefly, eyes were dilated using 1% tropicamide, then underwent laser treatment using 50 μm spot size, 50 ms duration, and 250 mW pulses of an ophthalmic argon green laser, wavelength 532 nm, coupled to a slit lamp. A coverslip was used to allow viewing of the posterior pole of the eye. Each eye received 3 laser burns centered around the optic nerve at 12, 3, and 9 o'clock positions. The appearance of a bubble at the site of laser application was used to identify laser-induced damage of Bruch's membrane. Lesions in which bubbles were not observed were excluded from analysis. The effect of SH-11037 on the L-CNV model using final estimated vitreal concentrations of 0.1, 0.3, 1, or 10 μM SH-11037 was tested. Anti-mouse VEGF164 neutralizing antibody (R&D Systems, Minneapolis, Minn.) was tested at 0.2, 1, and 5 ng/eye. Vehicle (PBS+0.5% DMSO) was used as a negative control. All injections were given a single time, immediately after laser treatment. In testing the effects of SH-11037 on existing L-CNV lesions, vehicle, anti-VEGF164, and SH-11037 (10 μM) injections were given a single time, 5 days post laser.
Optical coherence tomography (OCT) was performed at the indicated times using the Micron III intraocular imaging system (Phoenix Research Labs, Pleasanton, Calif.). Before the procedure, eyes were dilated with 1% tropicamide solution (Alcon, Fort Worth, Tex.) and lubricated with hypromellose ophthalmic demulcent solution (Gonak) (Akorn, Lake Forest, Ill.). Mice were then placed on a custom heated stage that moves freely to position the mouse eye for imaging. Several horizontal and vertical images were taken per lesion to allow calculation of CNV lesion volume. Three-dimensional quantification of CNV lesion volumes was performed using an ellipsoid quantification method as described in Sulaiman et al., J Ocul Pharmacol Ther, 2015, 31(8):447-54. FA was performed 14 days post laser by intraperitoneal injections of 50 μL of 25% fluorescein sodium (Fisher Scientific, Pittsburgh, Pa.). Fundus images were taken using the Micron III system and Streampix software.
Choroidal flatmount preparation, staining, and imaging were done as described in Sulaiman et al., J Ocul Pharmacol Ther, 2015, 31(8):447-54. ImageJ software was used to analyze Z-stack images; the summation of the whole stained area in each section, multiplied by the distance between sections (3 μm) was used as an index for the CNV lesion volume. The volumes of the 3 lesions in each eye were averaged and considered as an n=1 for statistical analysis.

[5] = system: new vessel growth induced by bFGF; settings: chick chorioallantoic membrane; cited from earlier work
retina [6] = settings: 10 μM into the vitreous of normal adult mice; cited from earlier work
[7] = system: choroidal neovascularization; settings: mouse, in vivo; cited from earlier work

For COc1ccc(CC2COc3cc(OC)c(OC)c(OC)c3C2=O)cc1OC(=O)[C@H](Cc1ccccc1)NC(=O)OC(C)(C)C (some centres unmarked) [SH-11037], the “retinal thickness (A/B ratio) morphological changes” value (retina [1]; intravitreal SH-11037, 3 and 14 days post injections, vs vehicle-treated and uninjected eyes) was “absence of morphological changes”, the “GFAP, cleaved caspase 3, TUNEL staining and MCP1 (retinal injury, apoptosis, inflammation)” value (retina [1]; intravitreal SH-11037, 3 and 14 days, vs vehicle-treated controls) was “Neither shorter-nor longer-term SH-11037 treated retina showed any significant increases” and the “histological changes in H&E stained retinal sections” value (retina [1]; intravitreal SH-11037 up to 100 μM final concentration, 3 and 14 days post injection, vs vehicle and no injection control eyes) was “no histological changes”. For the same compound, the “pathogenic retinal neovascularization in OIR model” value [2] was “significantly suppressed”, the “ERG scotopic a- and b-waves, and photopic b-waves” value (neural retina function) was “not significantly different” and the “changes in pre-existing retinal vessels” value [3] was “No changes”. For the same compound, the “induction of apoptosis in HRECs” value [4] was “without inducing apoptosis”, the HREC migration ([4]; concentration-dependent) was “inhibited” and the HREC proliferation ([4]; concentration-dependent) was “inhibited”. For the same compound, the HREC tube formation ([4]; concentration-dependent) was “inhibited”, the “ability of choroidal tissues to form sprouts (sprouting distance)” value (mouse choroidal tissues; 0.03, 0.3, 1 μM, 48 hours, concentration-dependent, vs vehicle treated controls) was “significantly inhibited” and the “cell viability of choroidal sprouts by Trypan blue staining” value (mouse choroidal tissues; 48 hours, 1 μM SH-11037 vs DMSO controls) was “absence of significant cell death”. For the same compound, the “potent inhibitory concentration in choroidal sprouting” value (mouse choroidal tissues; ex vivo choroid microvascular tissue) was 0.03 µM, the “reduction in CNV lesion volume (Z-stack images of agglutinin-stained choroidal flatmounts)” value (CNV lesions; 0.1 μM intravitreal) was “no reduction” and the “reduction in CNV lesion volume (Z-stack images of agglutinin-stained choroidal flatmounts)” value (CNV lesions; 0.3 μM intravitreal) was “no reduction”. The “reduction of CNV lesion volume” value (CNV lesions; 1 μM intravitreal) was “about 42%”, the “vascular volumes of pre-existing CNV lesions relative to vehicle” value (CNV lesions; 10 μM intravitreal single injection 5 days post laser, quantified 14 days post laser) was “significantly suppressed” and the “reduction of CNV lesion volume” value (CNV lesions; 10 μM intravitreal) was about 55%. The “leakiness of CNV lesions by fluorescein angiography” value (CNV lesions; 14 days post laser, relative to vehicle treatment) was “reduced leakiness”, the “CNV vascular volumes at day 14 versus 5 days control” value (CNV lesions; injection 5 days post laser (10 μM SH-11037; 5 ng anti-VEGF164)) was “no significant difference” and the “CNV lesion volumes by OCT, ellipsoid volume quantification” value (CNV lesions; intravitreal 0.1, 0.3, 1, 10 μM immediately after laser, 7 days post-laser, vs vehicle, dose-dependent) was “significantly lower”.

For COc1ccc(CC2COc3cc(O)c(OC)c(O)c3C2=O)cc1O (centres unmarked) [cremastranone, 5,7-dihydroxy-3-(3-hydroxy-4-methoxybenzyl)-6-methoxychroman-4-one], the “blocking new vessel growth induced by bFGF” value [5] is listed as “as effective as retinoic acid”, the “pathogenic retinal neovascularization in OIR model” value [2] is listed as “showed efficacy” and the “apoptosis of retinal cells” value (retina [6]) is listed as “nor did it induce apoptosis”. The “cytotoxic or inflammatory effects on the retina” value (retina [6]) was “no cytotoxic or inflammatory effects” and the “pathogenic neovascularization in laser photocoagulation CNV model” value [7] was “showed efficacy”.
